Paper PMC5547395 (EXCLI Journal, 2017)

Key:
human CYP51 (hCYP51) = target: T1, human CYP51 (hCYP51) (Homo sapiens, UniProt Q16850); experiment: Kd reported; presumably UV-visible difference spectroscopy (type II), human assay not described in Methods; format: binding
T1 construct: gene CYP51A1
T1 sequence (Q16850 1-509): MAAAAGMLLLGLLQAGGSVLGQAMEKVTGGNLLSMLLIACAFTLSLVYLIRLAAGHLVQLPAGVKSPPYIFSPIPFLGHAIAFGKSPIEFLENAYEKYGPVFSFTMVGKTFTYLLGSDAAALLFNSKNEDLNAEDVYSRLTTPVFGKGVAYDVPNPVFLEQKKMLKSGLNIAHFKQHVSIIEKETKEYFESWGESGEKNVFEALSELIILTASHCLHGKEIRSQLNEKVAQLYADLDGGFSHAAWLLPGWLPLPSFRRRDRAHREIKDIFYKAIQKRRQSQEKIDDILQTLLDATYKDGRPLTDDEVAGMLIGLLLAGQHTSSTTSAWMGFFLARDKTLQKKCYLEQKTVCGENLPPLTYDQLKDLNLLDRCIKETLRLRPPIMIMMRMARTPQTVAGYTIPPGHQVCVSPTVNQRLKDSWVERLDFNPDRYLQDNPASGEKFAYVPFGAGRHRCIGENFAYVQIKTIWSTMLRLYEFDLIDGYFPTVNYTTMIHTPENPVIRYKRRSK

[1] = target: T2, Sterol 14α-demethylase (CYP51) from Candida albicans (CaCYP51) (Candida albicans, UniProt P10613); experiment: UV-visible difference spectroscopy (type II spectral response) with isolated CYP51; format: binding
T2 construct: gene ERG11
T2 sequence (P10613 whole entry): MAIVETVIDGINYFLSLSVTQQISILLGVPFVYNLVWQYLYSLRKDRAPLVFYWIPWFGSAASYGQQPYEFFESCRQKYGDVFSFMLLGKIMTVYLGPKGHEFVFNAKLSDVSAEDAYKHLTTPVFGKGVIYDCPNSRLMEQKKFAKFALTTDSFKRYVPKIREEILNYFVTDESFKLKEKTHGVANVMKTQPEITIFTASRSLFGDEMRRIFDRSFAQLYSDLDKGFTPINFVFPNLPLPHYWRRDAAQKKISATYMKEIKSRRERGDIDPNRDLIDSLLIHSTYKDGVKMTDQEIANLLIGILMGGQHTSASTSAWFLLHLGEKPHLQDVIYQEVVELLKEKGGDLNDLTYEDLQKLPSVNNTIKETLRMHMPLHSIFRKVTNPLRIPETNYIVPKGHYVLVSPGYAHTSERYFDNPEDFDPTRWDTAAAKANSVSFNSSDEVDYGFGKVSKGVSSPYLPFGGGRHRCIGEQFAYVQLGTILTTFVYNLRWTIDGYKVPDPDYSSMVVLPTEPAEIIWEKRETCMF

`CC(=O)N1CCN(c2ccc(OC[C@H]3CO[C@](Cn4ccnc4)(c4ccc(Cl)cc4Cl)O3)cc2)CC1` (racemic) [ketoconazole] showed a Kd (human CYP51 (hCYP51)) of under 0.05 µM and a Kd [1] of under 0.05 µM.
